Measurements taken from patent publication US20140155415A1, “BENZ[…] BENZODIOXINE COMPOUNDS THAT INTERACT WITH G[…] FOR THE TREATMENT OF DIABETES” (priority 2011, published 2014).

Tests used:
[1] = target: T1, GK-GKRP (interaction between glucokinase and glucokinase regulatory protein) (Homo sapiens, UniProt Q14397); assay: GK-GKRP Binding Assay (Binding), AlphaScreen; settings: avi-tagged GKRP, GK-fluorescein, AlphaScreen beads, 1 μM sorbitol-6-phosphate; read-out: GK-GKRP IC50 (Binding)
T1 construct: made in house; host or cells: GKRP: baculovirus system
T1 sequence (Q14397 1-625): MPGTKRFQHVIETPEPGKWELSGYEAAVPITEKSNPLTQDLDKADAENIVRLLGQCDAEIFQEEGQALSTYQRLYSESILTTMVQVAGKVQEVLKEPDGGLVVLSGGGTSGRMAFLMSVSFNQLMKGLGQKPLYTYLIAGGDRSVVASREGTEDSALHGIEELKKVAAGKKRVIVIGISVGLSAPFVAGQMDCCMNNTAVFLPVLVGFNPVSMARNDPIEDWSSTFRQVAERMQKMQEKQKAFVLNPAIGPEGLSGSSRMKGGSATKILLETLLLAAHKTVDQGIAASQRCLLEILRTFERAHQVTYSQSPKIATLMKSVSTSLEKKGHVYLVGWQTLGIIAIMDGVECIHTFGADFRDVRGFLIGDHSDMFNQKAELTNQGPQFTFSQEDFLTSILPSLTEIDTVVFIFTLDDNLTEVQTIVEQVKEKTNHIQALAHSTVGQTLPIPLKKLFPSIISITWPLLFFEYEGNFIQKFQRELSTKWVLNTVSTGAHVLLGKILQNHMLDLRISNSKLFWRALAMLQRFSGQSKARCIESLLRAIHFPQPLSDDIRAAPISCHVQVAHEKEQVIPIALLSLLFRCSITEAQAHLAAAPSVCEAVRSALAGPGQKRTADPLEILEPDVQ
Procedure: GK-GKRP Binding Assay Protocol (Binding)
This assay is used to directly measure the interaction between glucokinase (GK) and glucokinase regulatory protein (GKRP). Begin by preparing the following solutions. Assay Buffer: 20 mM Tris, pH 7.5/0.05% BSA/1 mM DTT/1 μM sorbitol-6-phosphate. […] Combine the following reagents in a white 96-well half area plate. Pipette 14 μl of the diluted avi-tagged GKRP into each well. Add 1 μl of compound to be tested and incubate at room temperature for 20 minutes. After 20 minutes, add 5 μl of assay buffer containing 6 nM GK-fluorescein. […] Incubate in a dark room for 2 hours at room temperature. After 2 hours read the plate using an Envision plate reader (Perkin Elmer, Waltham Mass.).
Recombinant human glucokinase (hepatic) was purified and formulated in 50 mM Tris (pH 7.5), 150 mM NaCl and 20 mM glucose previous to labeling with fluorescein. […] Unreacted dye was removed by extensive dialysis into the final formulation buffer: 25 mM Tris (pH 7.2), 150 mM NaCl, 10% glycerol and 2 mM DTT. The human glucokinase regulatory protein construct was designed with a C-terminal avitag and was expressed in a baculovirus system. Purified GKRP was incubated overnight with recombinant biotin ligase in the presence of D-biotin, ATP and MgCl2. GKRP was isolated from reaction components by chromatography on a Superdex 200 size exclusion column into: 50 mM HEPES, 150 mM NaCl and 5 mM DTT. […] Proteins were quantitated according to their calculated molar extinction coefficients at A280 and were stored at −80° C.
(§1) In the Examples, the assays are referred to as “LCMS/MS” or “Binding.”

[2] = target: T2, GK-GKRP (glucokinase / glucokinase regulatory protein) (Homo sapiens, UniProt Q14397); assay: GKRP LC MS/MS Biochemical Assay (LCMS/MS); settings: formation of 13C-glucose-6-phosphate from 13C-glucose by LC MS/MS, human His-hepatic GK, fructose-6-phosphate
T2 sequence (Q14397 1-625): T1 sequence (Q14397 1-625)
Procedure: GKRP LC MS/MS Biochemical Assay (LCMS/MS)
This assay is used to directly measure the formation of ^13C-glucose-6-phosphate from ^13C-glucose by LC MS/MS. Begin by preparing the following solutions: Compound Buffer (CB): 50 mM Tris, pH 7.5/4 mM MgCl2/6% DMSO/fresh 10 mM DTT from 1M frozen stock. Enzyme Buffer (EB): 50 mM Tris, pH 7.5/4 mM MgCl2/6% DMSO/fresh 0.1% BSA/fresh 0.01% Brij-35 (10% BSA and 1% Brij-35 stock). GK (Glucokinase) Working Stock (5×): Dilute human His-hepatic GK to 30 nM in EB buffer. […] Seal the plate and incubate for 30 minutes at room temperature while mixing. After 30 minutes add 10 μl of GK Working Stock (5×). Re-seal the plate and incubate for another 30 minutes at room temperature while mixing. After the second 30 minutes, stop the reaction by the addition of 50 μl of 100% acetonitrile, seal, and mix for 5-10 minutes. Run 10 μl of this sample through the LC MS/MS (API 3200, Applied Biosystems, Carlsbad, Calif.). […]
as §1

| SMILES | IC50 [1] [nM] | EC50 [2] [nM] |
| --- | --- | --- |
| Cc1cc(F)ccc1C(NS(=O)(=O)c1ccc2c(c1)OCCCO2)c1cc2ccccc2o1 (racemic) [Example 3, N-(1-benzofuran-2-yl(4-fluoro-2-methylphenyl)methyl)-3,4-dihydro-2H-1,5-benzodioxepine-7-sulfonamide] | 1800 | 440 |
| Cc1ccc(F)cc1C(NS(=O)(=O)c1ccc2c(c1)OCCCO2)c1cc2ccccc2o1 (racemic) [Example 4, N-(1-benzofuran-2-yl(5-fluoro-2-methylphenyl)methyl)-3,4-dihydro-2H-1,5-benzodioxepine-7-sulfonamide] | 1400 | 460 |
| Cc1cccc(F)c1C(NS(=O)(=O)c1ccc2c(c1)OCCCO2)c1cc2ccccc2o1 (racemic) [Example 5, N-(1-benzofuran-2-yl(2-fluoro-6-methylphenyl)methyl)-3,4-dihydro-2H-1,5-benzodioxepine-7-sulfonamide] | 1000 | 790 |
| CCc1ccccc1C(NS(=O)(=O)c1ccc2c(c1)OCCCO2)c1cc2ccccc2o1 (racemic) [Example 6, N-(1-benzofuran-2-yl(2-ethylphenyl)methyl)-3,4-dihydro-2H-1,5-benzodioxepine-7-sulfonamide] | 220 | 67 |
| C=Cc1ccccc1C(NS(=O)(=O)c1ccc2c(c1)OCCCO2)c1cc2ccccc2o1 (racemic) [Example 7, N-(1-benzofuran-2-yl(2-ethenylphenyl)methyl)-3,4-dihydro-2H-1,5-benzodioxepine-7-sulfonamide] | 98 | 45 |
| C#Cc1ccccc1C(NS(=O)(=O)c1ccc2c(c1)OCCCO2)c1cc2ccccc2o1 (racemic) [Example 8, N-(1-benzofuran-2-yl(2-ethynylphenyl)methyl)-3,4-dihydro-2H-1,5-benzodioxepine-7-sulfonamide] | 47 | 72 |
| CC(C)c1ccccc1C(NS(=O)(=O)c1ccc2c(c1)OCCCO2)c1cc2ccccc2o1 (racemic) [Example 9, N-(1-benzofuran-2-yl(2-(1-methylethyl)phenyl)methyl)-3,4-dihydro-2H-1,5-benzodioxepine-7-sulfonamide] | 1100 | 280 |
| Cc1cccc(C)c1C(NS(=O)(=O)c1ccc2c(c1)OCCCO2)c1cc2ccccc2o1 (racemic) [Example 10, N-(1-benzofuran-2-yl(2,6-dimethylphenyl)methyl)-3,4-dihydro-2H-1,5-benzodioxepine-7-sulfonamide] | 4100 | 3800 |
| CCCc1ccccc1C(NS(=O)(=O)c1ccc2c(c1)OCCCO2)c1cc2ccccc2o1 (racemic) [Example 11, N-(1-benzofuran-2-yl(2-propylphenyl)methyl)-3,4-dihydro-2H-1,5-benzodioxepine-7-sulfonamide] | 1800 | 1700 |
| O=S(=O)(NC(c1cc2ccccc2o1)c1ccccc1C(F)(F)F)c1ccc2c(c1)OCCCO2 (racemic) [Example 12, N-(1-benzofuran-2-yl(2-(trifluoromethyl)phenyl)methyl)-3,4-dihydro-2H-1,5-benzodioxepine-7-sulfonamide] | 1000 | 320 |
| O=S(=O)(NC(c1cccc(O)c1)c1cc2ccccc2o1)c1ccc2c(c1)OCCCO2 (racemic) [Example 13, N-(1-benzofuran-2-yl(3-hydroxyphenyl)methyl)-3,4-dihydro-2H-1,5-benzodioxepine-7-sulfonamide] | 2500 | 1800 |
| Nc1cccc(C(NS(=O)(=O)c2ccc3c(c2)OCCCO3)c2cc3ccccc3o2)c1 (racemic) [Example 14, N-((3-aminophenyl)(1-benzofuran-2-yl)methyl)-3,4-dihydro-2H-1,5-benzodioxepine-7-sulfonamide] | 1200 | 1600 |
| O=S(=O)(NC(c1cc2ccccc2o1)c1ccccc1CO)c1ccc2c(c1)OCCCO2 (racemic) [Example 15, N-(1-benzofuran-2-yl(2-(hydroxymethyl)phenyl)methyl)-3,4-dihydro-2H-1,5-benzodioxepine-7-sulfonamide] | 4600 | 1600 |
| COc1ccccc1C(NS(=O)(=O)c1ccc2c(c1)OCCCO2)c1cc2ccccc2o1 (racemic) [Example 17, N-(1-benzofuran-2-yl(2-methoxyphenyl)methyl)-3,4-dihydro-2H-1,5-benzodioxepine-7-sulfonamide] | 170 | 95 |
| O=S(=O)(NC(c1cc2ccccc2o1)c1ccccc1OC(F)(F)F)c1ccc2c(c1)OCCCO2 (racemic) [Example 18, N-(1-benzofuran-2-yl(2-(trifluoromethoxy)phenyl)methyl)-3,4-dihydro-2H-1,5-benzodioxepine-7-sulfonamide] | 970 | 340 |
| CSc1ccccc1C(NS(=O)(=O)c1ccc2c(c1)OCCCO2)c1cc2ccccc2o1 (racemic) [Example 19, N-(1-benzofuran-2-yl(2-(methylsulfanyl)phenyl)methyl)-3,4-dihydro-2H-1,5-benzodioxepine-7-sulfonamide] | 160 | 38 |
| O=S(=O)(NC(c1cc2ccccc2o1)c1ccccc1Cl)c1ccc2c(c1)OCCCO2 (racemic) [Example 20, N-(1-benzofuran-2-yl(2-chlorophenyl)methyl)-3,4-dihydro-2H-1,5-benzodioxepine-7-sulfonamide] | 220 | 70 |
| O=S(=O)(NC(c1cc2ccccc2o1)c1ccccc1I)c1ccc2c(c1)OCCCO2 (racemic) [Example 21, N-(1-benzofuran-2-yl(2-iodophenyl)methyl)-3,4-dihydro-2H-1,5-benzodioxepine-7-sulfonamide] | 228 | 76 |
| O=S(=O)(NC(c1cc2ccccc2o1)c1ccccc1Br)c1ccc2c(c1)OCCCO2 (racemic) [Example 22, N-(1-benzofuran-2-yl(2-bromophenyl)methyl)-3,4-dihydro-2H-1,5-benzodioxepine-7-sulfonamide] | 150 | 58 |
| O=S(=O)(NC(c1cc2ccccc2o1)c1ccccc1F)c1ccc2c(c1)OCCCO2 (racemic) [Example 23, N-(1-benzofuran-2-yl(2-fluorophenyl)methyl)-3,4-dihydro-2H-1,5-benzodioxepine-7-sulfonamide] | 490 | 450 |
| O=S(=O)(NC(c1ccsc1)c1cc2ccccc2o1)c1ccc2c(c1)OCCCO2 (racemic) [Example 32, N-(1-benzofuran-2-yl(3-thiophenyl)methyl)-3,4-dihydro-2H-1,5-benzodioxepine-7-sulfonamide] |  | 1400 |
| Cc1ccccc1[C@H](NS(=O)(=O)c1ccc2c(c1)OCCCO2)c1cc2ccccc2o1 (single isomer, unassigned) [Example 2 Peak #1] |  | > 50000 |
| Cc1ccccc1[C@@H](NS(=O)(=O)c1ccc2c(c1)OCCCO2)c1cc2ccccc2o1 (single isomer, unassigned) [Example 2 Peak #2] |  | 43 |
